The text below walks through data of paper PMC10518255, “A first-in-class pan-lysyl oxidase inhibitor impairs stromal remodeling and enhances gemcitabine response and survival in pancreatic cancer” (Nature Cancer, 2023).

Experiment [1] deals with KPC CAF remodeled 3D collagen matrices. Description: Matrix stiffness by unconfined compression testing of organotypic matrices. The format is cell-based, mouse. As to conditions: PXS-5120 100 nM, day 12. Here is the method:
Fig. 3 PXS-5505 inhibition of CAF remodeling in vitro. a, Quantitative PCR with reverse transcription (qRT–PCR) showing in vitro comparison of KPC CAF relative expression of lysyl oxidase family members compared to KPC CCs from the same model (n = 3 biologically independent samples). Comparisons were determined by 2^–∆∆Ct approach. b, Representative images of 3D organotypic matrix contraction assay at days 2, 6 and 12 in the absence (gray) or presence (pink) of PXS-5505 (30 µM). Scale bars, 5 mm. Comparison of measured area of matrices between control and PXS-5505 treatment groups over time (n = 3 technical samples examined over three biologically independent samples). Data are mean ± s.d. c, Concentration of immature divalent DHLNL and mature trivalent Pyr collagen crosslinks determined by LC–MS from control and PXS-5505-treated organotypic matrices at day 12 (n = 3 technical samples examined over two biologically independent samples). Data are mean ± s.d. […] Data are presented as mean ± s.d. […] Comparison of number of CCs invaded per field of view (FOV) as determined by H&E and PanCK staining (nine images taken from three technical samples from each of three biologically independent contracted matrices), normalized to control. Data are mean ± s.d. Scale bars, 100 μm. […] Source data […]

The test system of the next experiment is KPC CCs. Description: Cancer cell invasion into CAF-remodeled 3D organotypic matrices. The format is cell-based, mouse. The settings on record: PXS-5120 100 nM. On the procedure: Fig. 3 PXS-5505 inhibition of CAF remodeling in vitro. a, Quantitative PCR with reverse transcription (qRT–PCR) showing in vitro comparison of KPC CAF relative expression of lysyl oxidase family members compared to KPC CCs from the same model (n = 3 biologically independent samples). Comparisons were determined by 2^–∆∆Ct approach. b, Representative images of 3D organotypic matrix contraction assay at days 2, 6 and 12 in the absence (gray) or presence (pink) of PXS-5505 (30 µM). Scale bars, 5 mm. Comparison of measured area of matrices between control and PXS-5505 treatment groups over time (n = 3 technical samples examined over three biologically independent samples). Data are mean ± s.d. c, Concentration of immature divalent DHLNL and mature trivalent Pyr collagen crosslinks determined by LC–MS from control and PXS-5505-treated organotypic matrices at day 12 (n = 3 technical samples examined over two biologically independent samples). Data are mean ± s.d. […] Data are presented as mean ± s.d. […] Comparison of number of CCs invaded per field of view (FOV) as determined by H&E and PanCK staining (nine images taken from three technical samples from each of three biologically independent contracted matrices), normalized to control. Data are mean ± s.d. Scale bars, 100 μm. […] Source data
Following remodeling, 4 × 10^4 KPC CCs were seeded on top of the remodeled matrix in DMEM supplemented with 10% FBS and 1% penicillin–streptomycin and allowed to grow to confluence for 4 days, after which matrices were transferred to an air–liquid interface and CCs allowed to invade into the organotypic matrices for 12 days (Extended Data Fig. 4f). PXS-5505 (30 μM) or PXS-5120 (100 nM) was added to medium at 48-h intervals for the duration. At the end point, matrices were fixed in 10% formalin and processed for histological analysis by H&E and panCK staining. The invasive index was measured in three representative areas per matrix and the number of invaded cells per mm^2 was calculated. No statistical methods were used to predetermine sample sizes but our sample sizes are similar to those reported in previous publications[36],[39].
Extended Data Fig. 4 PXS-5505 inhibits collagen cross-linking by PDAC CAFs in vitro resulting in decreased cancer cell invasion. a. Schematic of organotypic matrix remodeling assay whereby CAFs are embedded into a 3D collagen matrix and growth media supplemented with or without PXS-5505 to inhibit lysyl oxidase family activity b. Chemical structures of lysyl oxidase family catalyzed hydroxyallysine or allysine residues and the subsequent divalent and trivalent bonds that are formed that can be quantified by mass spectrometry. c. Representative images of 3D organotypic matrix contraction by human pancreatic cancer CAFs at days 2, 6 and 12 in the absence (gray) and presence (pink) of PXS-5505 (30 µM). Scale bars = 5 mm. […] Data presented as mean values +/− SD. d. […] Data presented as mean values +/− SD. Relative fold expression of LOXL family members compared to LOX were determined by 2^–∆∆Ct approach. f. […] Comparison of measured area of matrices between control, PXS-5120 and PXS-5505 treatment groups (n = 3) over time. i. […] Representative images of invasion of KPC cancer cells into a contracted organotypic matrix as determined by H&E staining. […]

In the next experiment the target is T1, SSAO (Homo sapiens, UniProt Q16853).
T1 sequence (Q16853 1-763): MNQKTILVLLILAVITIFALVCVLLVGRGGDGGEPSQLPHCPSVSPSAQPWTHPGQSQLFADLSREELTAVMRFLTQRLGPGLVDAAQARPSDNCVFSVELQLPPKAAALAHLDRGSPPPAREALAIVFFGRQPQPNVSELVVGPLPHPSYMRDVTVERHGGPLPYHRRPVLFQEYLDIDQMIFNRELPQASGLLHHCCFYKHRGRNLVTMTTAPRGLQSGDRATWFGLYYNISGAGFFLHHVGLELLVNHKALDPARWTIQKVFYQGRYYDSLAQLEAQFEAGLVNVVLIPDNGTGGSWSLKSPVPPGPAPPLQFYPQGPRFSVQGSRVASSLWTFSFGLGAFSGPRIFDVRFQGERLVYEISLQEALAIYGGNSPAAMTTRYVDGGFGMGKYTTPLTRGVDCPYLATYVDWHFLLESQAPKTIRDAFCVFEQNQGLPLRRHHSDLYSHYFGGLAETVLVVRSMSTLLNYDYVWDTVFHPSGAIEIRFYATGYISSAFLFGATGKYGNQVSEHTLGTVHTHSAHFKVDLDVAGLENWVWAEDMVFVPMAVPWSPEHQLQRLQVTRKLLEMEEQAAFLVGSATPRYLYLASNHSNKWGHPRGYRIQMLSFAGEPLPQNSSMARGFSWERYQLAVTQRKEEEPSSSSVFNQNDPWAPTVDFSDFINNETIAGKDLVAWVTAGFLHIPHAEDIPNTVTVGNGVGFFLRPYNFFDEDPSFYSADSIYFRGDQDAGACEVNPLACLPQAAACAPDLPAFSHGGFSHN
Description: Substrate turnover by H2O2 release, amplex red coupled fluorometric activity assay (Extended Data Fig. 3a). It is filed as biochemical. The source says:
(§1) Specifically, BAPN is oxidized by diamine oxidase (DAO) and semicarbazide-sensitive amine oxidase (SSAO)/vascular adhesion protein 1 (VAP-1) in the vasculature (Extended Data Fig. 3a), which releases hydrogen […] (H2O2) and aldehyde in humans leading to toxicity.
(§2) Data presented as mean values +/− SD. f. […] Data presented as mean values +/− SD. […] Data presented as mean values +/− SD. […] Data presented as mean values +/− SD. Ordinary one-way ANOVA for multiple comparison test performed. Source data

Another experiment addresses T2, DAO (Homo sapiens, UniProt P19801).
T2 sequence (P19801 20-751): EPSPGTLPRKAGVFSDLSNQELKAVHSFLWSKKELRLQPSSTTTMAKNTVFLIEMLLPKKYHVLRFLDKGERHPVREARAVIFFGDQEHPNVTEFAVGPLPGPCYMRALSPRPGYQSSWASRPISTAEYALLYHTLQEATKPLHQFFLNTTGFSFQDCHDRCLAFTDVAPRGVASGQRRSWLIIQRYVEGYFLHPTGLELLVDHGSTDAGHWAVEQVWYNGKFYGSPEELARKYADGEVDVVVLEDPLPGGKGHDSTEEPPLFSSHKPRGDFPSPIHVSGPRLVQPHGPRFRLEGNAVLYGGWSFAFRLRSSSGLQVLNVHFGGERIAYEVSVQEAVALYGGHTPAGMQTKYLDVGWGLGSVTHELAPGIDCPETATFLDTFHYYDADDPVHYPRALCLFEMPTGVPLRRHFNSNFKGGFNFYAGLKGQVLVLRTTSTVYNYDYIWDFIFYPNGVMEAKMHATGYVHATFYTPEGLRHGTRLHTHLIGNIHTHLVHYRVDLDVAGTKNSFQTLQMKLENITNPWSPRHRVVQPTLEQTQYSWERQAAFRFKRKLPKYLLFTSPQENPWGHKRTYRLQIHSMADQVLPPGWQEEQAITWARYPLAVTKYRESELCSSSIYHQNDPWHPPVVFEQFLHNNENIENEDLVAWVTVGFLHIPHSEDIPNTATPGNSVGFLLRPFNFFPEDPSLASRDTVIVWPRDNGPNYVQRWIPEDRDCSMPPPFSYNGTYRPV
The experiment is described as above. The format is biochemical.
Description: as §1, §2

The mark [2] stands for this setting: listed as value 30 (unit not given).
Setting [3] is: listed as value 60 (unit not given).
The mark [4] stands for this setting: listed as value 300 (unit not given).

Consider `Cc1c(-c2cccc(S(=O)(=O)N(C)C)c2)c2cc(C(=O)O)ccc2n1C/C(F)=C/CN` [PXS-5120, reference compound], for which the “stiffening of 3D collagen matrices” value in experiment [1] is “does not significantly block stiffening”. Further, in the experiment on KPC CCs, the CC invasion entry is “does not lead to decreased CC invasion”.

As for `N#CCCN` [BAPN, β-aminopropionitrile, reference compound], the “processing as a substrate by SSAO/VAP-1” value on SSAO is on record as “oxidized”. In addition, the “Turnover by SSAO as measured by H2O2 release, mean” value at SSAO (setting [2]) was found to be 1.3236; at SSAO (setting [3]), 1.5791; on SSAO (setting [4]), 2.4689. Further, the “processing as a substrate by DAO” value at DAO is “oxidized”. Also, the “Turnover by DAO as measured by H2O2 release, mean” value at DAO (setting [2]) amounted to 3.75; at DAO (setting [3]) it was 4.64; on DAO (setting [4]) it was 5.888.
